According to ChEMBL document CHEMBL1201862, “PubChem BioAssay data set” (2004):
Values belong to the molecule of their own block, whether it stands above or below them. Activity calls are given as the source filed them.

Columns and labels:
HEK293 [1] = assay: NOD1 signaling inhibitors, primary screen, cell-based, luminescence, uHTS (AID 1578); assay type: functional; details: Homo sapiens
HEK293 [2] = assay: cells; assay type: functional, cell-based; details: Homo sapiens
HEK293 [3] = assay: cells; assay type: functional, cell-based; details: Homo sapiens; remark: listed apart in the source
[4] = target: T1, Nucleotide-binding oligomerization domain-containing protein 2 (Homo sapiens, UniProt Q9HC29); assay: NOD2 signaling inhibitors, cell-based, luminescence, uHTS, HEK293 (AID 1566); assay type: functional
HEK293 [5] = assay: NOD2 signaling inhibitors in MDP-stimulated cells, cell-based, uHTS, luminescence (AID 2001); assay type: functional; details: Homo sapiens
HEK293 [6] = assay: cells; assay type: functional, cell-based; details: Homo sapiens; remark: listed apart in the source
[7] = target: T1, Nucleotide-binding oligomerization domain-containing protein 2; assay: NOD2 inhibitors, SAR follow-up, set 2 (AID 2475); assay type: functional
Tumor necrosis factor [8] = target: T2, Tumor necrosis factor (Homo sapiens, UniProt P01375); assay: TNFa-triggered NF-kB activation inhibitors, SAR follow-up, cell-based, revised (AID 2337); assay type: functional
HEK293 [9] = assay: SAR analysis of compounds that are cytotoxic to HEK293 - Set 2. [Related pubchem assays (depositor defined):AID1575, AID1578, AID1849, AID2001, AID2333, AID2334, AID2335, AID2337, AID2800]; assay type: functional, cell-based; details: Homo sapiens
[10] = target: T3, Nucleotide-binding oligomerization domain-containing protein 1 (Homo sapiens, UniProt Q9Y239); assay: NOD1 signaling inhibitors, SAR follow-up, revised (AID 2333); assay type: functional
T3 sequence (Q9Y239 whole entry): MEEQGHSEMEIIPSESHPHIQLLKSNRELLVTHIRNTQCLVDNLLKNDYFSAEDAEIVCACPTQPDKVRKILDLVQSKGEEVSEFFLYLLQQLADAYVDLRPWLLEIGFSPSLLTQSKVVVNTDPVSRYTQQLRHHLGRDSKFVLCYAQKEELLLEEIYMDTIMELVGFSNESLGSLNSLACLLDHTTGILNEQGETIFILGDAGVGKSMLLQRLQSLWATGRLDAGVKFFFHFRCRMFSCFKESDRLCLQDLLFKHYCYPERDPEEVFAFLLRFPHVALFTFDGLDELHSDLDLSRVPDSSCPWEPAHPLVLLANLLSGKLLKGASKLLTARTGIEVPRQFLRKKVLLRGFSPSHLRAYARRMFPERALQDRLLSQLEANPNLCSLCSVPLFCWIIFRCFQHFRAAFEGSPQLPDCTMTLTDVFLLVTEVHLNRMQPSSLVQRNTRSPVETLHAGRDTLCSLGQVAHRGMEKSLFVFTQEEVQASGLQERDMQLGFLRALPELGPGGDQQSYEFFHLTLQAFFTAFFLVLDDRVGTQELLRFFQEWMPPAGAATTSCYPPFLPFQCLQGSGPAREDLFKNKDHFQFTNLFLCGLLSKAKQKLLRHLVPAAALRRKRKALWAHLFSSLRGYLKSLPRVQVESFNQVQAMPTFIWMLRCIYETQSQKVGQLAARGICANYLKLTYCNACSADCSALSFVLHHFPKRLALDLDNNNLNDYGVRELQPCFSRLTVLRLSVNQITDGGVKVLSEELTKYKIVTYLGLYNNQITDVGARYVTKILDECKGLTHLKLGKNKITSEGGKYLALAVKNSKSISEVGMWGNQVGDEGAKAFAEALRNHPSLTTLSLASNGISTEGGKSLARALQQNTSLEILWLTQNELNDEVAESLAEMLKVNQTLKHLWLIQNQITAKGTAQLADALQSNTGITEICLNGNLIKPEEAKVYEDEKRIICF

[11] = target: T3, Nucleotide-binding oligomerization domain-containing protein 1; assay: SAR analysis of compounds that inhibit NOD1 - Set 2. [Related pubchem assays (depositor defined):AID1566, AID1575, AID1578, AID1849, AID1852, AID2333, AID2335, AID2798]; assay type: functional
Tumor necrosis factor [12] = target: T2, Tumor necrosis factor; assay: TNFa-triggered NF-kB activation inhibitors, SAR follow-up, cell-based, set 2 (AID 2483); assay type: functional
[13] = target: T1, Nucleotide-binding oligomerization domain-containing protein 2; assay: PubChem AID 2334; assay type: functional
HEK293 [14] = assay: cells; details: Homo sapiens
Ion channel NompC = Ion channel NompC (Danio rerio, UniProt Q7T1G6); assay: Dose response cell-based high-throughput screening assay for agonists of the transient receptor potential channel N1 (TRPN1). [Related pubchem assays (depositor defined):AID1424, AID1448]; assay type: functional
Mucolipin-3 = target: T4, Mucolipin-3 (Homo sapiens, UniProt Q8TDD5); assay: Fluorescence counterscreen assay for […] agonists: dose response cell-based high-throughput screening assay to identify agonists of the transient receptor potential channel ML3 (TRPML3). [Related pubchem assays: 1424, 1448 ]; assay type: functional
T4 sequence (Q8TDD5 whole entry): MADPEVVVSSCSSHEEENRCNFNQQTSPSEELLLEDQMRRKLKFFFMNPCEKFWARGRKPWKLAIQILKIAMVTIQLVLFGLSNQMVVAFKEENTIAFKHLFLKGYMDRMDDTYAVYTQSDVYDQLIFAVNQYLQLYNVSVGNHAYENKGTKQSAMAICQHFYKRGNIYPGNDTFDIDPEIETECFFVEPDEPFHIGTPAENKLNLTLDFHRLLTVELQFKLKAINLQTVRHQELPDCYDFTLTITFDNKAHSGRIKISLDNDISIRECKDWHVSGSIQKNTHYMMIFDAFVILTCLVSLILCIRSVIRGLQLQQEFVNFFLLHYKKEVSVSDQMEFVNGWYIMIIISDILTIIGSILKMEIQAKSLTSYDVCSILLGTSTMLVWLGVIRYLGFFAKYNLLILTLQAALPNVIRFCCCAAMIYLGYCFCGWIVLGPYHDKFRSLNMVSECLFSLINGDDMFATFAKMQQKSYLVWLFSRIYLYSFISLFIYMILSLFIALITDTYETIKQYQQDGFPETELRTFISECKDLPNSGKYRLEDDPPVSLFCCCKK

[15] = target: Eukaryotic translation initiation factor 4E (Mus musculus, UniProt P63073); assay: eIF4E–eIF4G protein interaction inhibitors, dose response, biochemical, TR-FRET (AID 855); assay type: functional;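 also: potency for disrupting eIF4E binding to eIF4GI seen as loss of FRET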
Troponin, cardiac muscle = Troponin, cardiac muscle (Homo sapiens, UniProt P19429+P45379+P63316); assay: Fluorescence-based biochemical high throughput dose response assay for activators of the calcium sensitivity of cardiac Regulated Thin Filaments (RTF). [Related pubchem assays (depositor defined):AID493008, AID493018, AID504382, AID504383]; assay type: protein-complex assay
[16] = HeLa cell cytotoxicity, dose response, cytotoxicity control for MgcRacGAP inhibitor project (AID 624300); assay type: functional
[17] = target: T5, Rac GTPase-activating protein 1 (Homo sapiens, UniProt Q9H0H5); assay: MgcRacGAP GTPase-activating activity inhibitors, confirmation, biochemical, ADP Hunter fluorescence, primary and confirmatory (AID 624330); assay type: functional
T5 sequence (Q9H0H5 whole entry): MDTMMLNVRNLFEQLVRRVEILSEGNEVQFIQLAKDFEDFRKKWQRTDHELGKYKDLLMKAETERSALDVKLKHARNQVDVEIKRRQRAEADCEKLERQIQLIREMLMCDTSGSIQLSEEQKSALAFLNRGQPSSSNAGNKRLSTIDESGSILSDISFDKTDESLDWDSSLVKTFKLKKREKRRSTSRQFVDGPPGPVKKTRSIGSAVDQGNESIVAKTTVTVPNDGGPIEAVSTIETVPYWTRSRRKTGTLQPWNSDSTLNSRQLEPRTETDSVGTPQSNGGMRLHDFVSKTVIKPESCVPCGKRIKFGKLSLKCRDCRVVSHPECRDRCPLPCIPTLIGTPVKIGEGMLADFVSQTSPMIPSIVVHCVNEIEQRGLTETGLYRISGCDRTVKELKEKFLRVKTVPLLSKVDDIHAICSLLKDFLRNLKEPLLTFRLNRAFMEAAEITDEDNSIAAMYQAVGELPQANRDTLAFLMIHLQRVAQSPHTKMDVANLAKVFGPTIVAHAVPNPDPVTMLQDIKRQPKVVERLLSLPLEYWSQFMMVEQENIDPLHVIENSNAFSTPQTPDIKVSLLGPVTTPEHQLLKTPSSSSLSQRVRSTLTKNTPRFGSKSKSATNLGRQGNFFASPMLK

[18] = target: T6, Sphingosine 1-phosphate receptor 4 (Homo sapiens, UniProt O95977); assay: Late-stage fluorescence dose response cell-based assay to identify agonists of the Sphingosine 1-Phosphate Receptor 4 (S1P4): purchased compounds EC50. [Related pubchem assays (depositor defined):AID1509, AID1523, AID1563, AID1686, AID1701, AID1801]; assay type: functional
T6 sequence (O95977 whole entry): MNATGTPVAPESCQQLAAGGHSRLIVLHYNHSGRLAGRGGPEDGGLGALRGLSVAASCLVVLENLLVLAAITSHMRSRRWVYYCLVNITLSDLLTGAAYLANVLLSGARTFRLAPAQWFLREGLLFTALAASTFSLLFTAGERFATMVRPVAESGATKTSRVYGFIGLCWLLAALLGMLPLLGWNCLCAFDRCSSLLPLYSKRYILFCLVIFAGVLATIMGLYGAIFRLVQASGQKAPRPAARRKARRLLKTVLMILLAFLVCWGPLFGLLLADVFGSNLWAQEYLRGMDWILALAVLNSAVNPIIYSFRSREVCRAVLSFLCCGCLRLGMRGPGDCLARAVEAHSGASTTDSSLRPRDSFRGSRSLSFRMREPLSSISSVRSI

[19] = target: DNA dC->dU-editing enzyme APOBEC-3A (Homo sapiens, UniProt P31941); assay: Dose Response confirmation of small molecule APOBEC3A DNA Deaminase Inhibitors via a fluorescence-based single-stranded DNA deaminase assay. [Related pubchem assays (depositor defined):AID493011, AID493024]; assay type: functional
[20] = target: DNA dC->dU-editing enzyme APOBEC-3G (Homo sapiens, UniProt Q9HC16); assay type: functional;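 also: Dose-response counterscreen measuring inhibition of APOBEC3G DNA deaminase activity, run while confirming APOBEC3A inhibitors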

SMILES: Cc1cc(SCC(=O)OC/C(O)=C(\C#N)c2nc3ccccc3[nH]2)c(C)cc1Br
EC50 (HEK293 [1]): > 20 µM (inactive)
IC50 (HEK293 [2]): 18.9 µM (active)
IC50 (HEK293 [3]): > 20 µM (inactive)
EC50 [4]: > 20 µM (inactive)
IC50 (HEK293 [5]): 5.41 µM (inactive)
IC50 (HEK293 [6]): > 20 µM (inactive)
IC50 [7]: 5.19 µM (active)
IC50 (Tumor necrosis factor [8]): > 20 µM (inactive)
IC50 (HEK293 [9]): > 20 µM (inactive)
IC50 [10]: > 20 µM (inactive)
IC50 [11]: 5.95 µM (active)
IC50 (Tumor necrosis factor [12]): > 20 µM (inactive)
IC50 [13]: > 20 µM (inactive)
IC50 (HEK293 [14]): > 20 µM (inactive)

EC50 (Ion channel NompC): 3.62 µM (active)
EC50 (Mucolipin-3): 8.88 µM (active)
IC50 [15]: 50 µM (inactive)
EC50 (Troponin, cardiac muscle): 4.89 µM (active)
IC50 [17]: 20 µM (active)
SMILES: COc1cc(/C=C(\C#N)c2nc3ccccc3[nH]2)cc(OC)c1O
CC50 [16]: 100 µM (active)

EC50 [18]: > 50 µM (inactive)
SMILES: Cc1ccc(OCc2ccc(Cl)c(Cl)c2)c([N+](=O)[O-])n1

SMILES: O=C(CNC(=O)OCc1ccccc1)Nc1ccc(F)cc1
IC50 [19]: 3.04 µM (active)
IC50 [20]: 5.01 µM (active)
